PubChem BioAssay AID1159605 (The Scripps Research Institute Molecular Screening Center, 2016)
Calls of active or inactive are those of the source.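 The calls were made as follows: active = IC50 of 10 µM or lower; inactive = IC50 above 10 µM.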

Biological target: Mitogen-activated protein kinase kinase kinase 5 (Homo sapiens) (UniProt Q99683)
Assay: MAP3K5 inhibition concentration-response curves – biochemical, AlphaScreen, MKK6 phosphorylation, dose response (AID 1159605);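 also: ASK1 phosphorylation of MKK6 substrate detected with anti-phospho-MKK6 antibody beads; inhibitors lower the luminescent signal by blocking MKK6 phosphorylation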
Settings: ASK1 MKK6 phosphorylation, AlphaScreen luminescence

Chain of Mitogen-activated protein kinase kinase kinase 5 (Homo sapiens) (Q99683 whole entry, looked up): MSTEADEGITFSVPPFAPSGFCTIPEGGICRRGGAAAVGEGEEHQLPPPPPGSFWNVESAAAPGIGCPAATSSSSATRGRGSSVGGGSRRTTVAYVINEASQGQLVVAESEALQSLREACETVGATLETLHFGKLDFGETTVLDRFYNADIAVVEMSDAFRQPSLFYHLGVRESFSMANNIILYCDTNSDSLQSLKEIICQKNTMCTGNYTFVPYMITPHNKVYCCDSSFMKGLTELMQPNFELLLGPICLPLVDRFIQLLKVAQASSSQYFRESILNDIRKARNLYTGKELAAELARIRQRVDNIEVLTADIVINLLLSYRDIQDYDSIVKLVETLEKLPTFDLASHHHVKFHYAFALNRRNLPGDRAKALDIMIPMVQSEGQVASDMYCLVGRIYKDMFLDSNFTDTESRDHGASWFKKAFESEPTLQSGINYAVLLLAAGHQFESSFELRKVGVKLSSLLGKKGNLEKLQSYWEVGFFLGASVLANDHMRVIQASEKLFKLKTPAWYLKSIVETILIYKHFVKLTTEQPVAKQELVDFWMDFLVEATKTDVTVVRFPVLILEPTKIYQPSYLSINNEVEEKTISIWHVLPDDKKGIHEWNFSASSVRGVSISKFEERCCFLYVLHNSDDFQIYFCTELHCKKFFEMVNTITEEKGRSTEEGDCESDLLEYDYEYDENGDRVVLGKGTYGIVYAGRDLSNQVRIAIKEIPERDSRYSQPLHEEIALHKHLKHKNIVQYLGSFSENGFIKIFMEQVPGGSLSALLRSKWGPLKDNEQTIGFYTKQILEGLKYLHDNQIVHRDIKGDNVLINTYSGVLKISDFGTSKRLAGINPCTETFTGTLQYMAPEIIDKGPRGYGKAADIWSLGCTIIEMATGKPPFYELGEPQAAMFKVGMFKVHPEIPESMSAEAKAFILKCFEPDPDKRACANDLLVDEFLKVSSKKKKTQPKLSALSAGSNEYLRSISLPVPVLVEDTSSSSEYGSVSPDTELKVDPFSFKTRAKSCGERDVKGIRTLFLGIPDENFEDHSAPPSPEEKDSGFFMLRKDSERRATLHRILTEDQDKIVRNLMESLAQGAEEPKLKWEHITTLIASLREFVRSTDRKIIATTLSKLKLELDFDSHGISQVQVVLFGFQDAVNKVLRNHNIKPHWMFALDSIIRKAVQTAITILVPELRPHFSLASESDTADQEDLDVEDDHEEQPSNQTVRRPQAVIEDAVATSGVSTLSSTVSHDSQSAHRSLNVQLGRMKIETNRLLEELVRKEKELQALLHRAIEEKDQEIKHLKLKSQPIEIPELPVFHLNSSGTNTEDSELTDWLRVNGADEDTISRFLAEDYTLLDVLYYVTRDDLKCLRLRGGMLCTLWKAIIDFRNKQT

IC50	Compound
inactive	COc1cc(Nc2nc(-c3ccc(C(N)=O)cc3)nc3c2ncn3C2CCCCC2)cc(OC)c1OC
inactive	FC(F)(F)c1ccc(Cn2cnc3c(NC4CCN(Cc5ccccc5)CC4)nc(Nc4ccc(N5CCOCC5)cc4)nc32)cc1
> 19.9 µM (inactive)	O=C(NC1CC1)c1ccc(-c2nc(NCc3cccc(C(F)(F)F)c3)c3ncn(-c4ccccc4)c3n2)cc1
> 22.5 µM (inactive)	COc1ccc(CCNc2nc(N3CCN(Cc4ccc5c(c4)OCO5)CC3)nc3c2ncn3C2CCCCC2)cc1
> 20 µM (inactive)	O=C(Cc1cn(-c2ccc(N3CCN(Cc4ccc5c(c4)OCO5)CC3)nn2)c2ccccc12)Nc1ccc(N2CCOCC2)cc1
> 19.2 µM (inactive)	COc1cc(NC(=O)c2cccc(-n3cc(NC(=O)Nc4c(C)cccc4Cl)cn3)c2)cc(OC)c1OC
> 22.2 µM (inactive)	CN(C)c1cccc(Nc2cc(Nc3ccccc3)ncn2)c1
8.62 µM	FC(F)(F)c1cccc(CNc2nc(Nc3ccc(N4CCOCC4)cc3)nc3c2ncn3-c2ccsc2)c1
> 19.2 µM (inactive)	O=C(Nc1ccccc1)c1ccccc1Nc1ccnc(Nc2ccc(N3CCOCC3)cc2)c1
> 19.9 µM (inactive)	c1cc(-n2cnc3c(Nc4ccc5c(c4)OCO5)nc(N4CCN(Cc5ccc6c(c5)OCO6)CC4)nc32)cs1
> 19.7 µM (inactive)	c1ccc(CN2CCC(Nc3nc(Nc4ccc(N5CCOCC5)cc4)nc4nc[nH]c34)CC2)cc1
> 19.2 µM (inactive)	c1cc(-c2ccc3[nH]ncc3c2)nc(Nc2ccc(N3CCOCC3)cc2)n1
inactive	CN(C)c1cccc(Nc2nc(Nc3ccc4c(c3)OCO4)c3ncn(Cc4ccc(C(F)(F)F)cc4)c3n2)c1
> 20 µM (inactive)	FC(F)(F)c1cccc(CNc2nc(N3CCN(c4ccccn4)CC3)nc3c2ncn3-c2ccsc2)c1
8.95 µM	COc1cc2nc(Nc3nc4ccccc4n3C)nc(Nc3ccc(N4CCOCC4)cc3)c2cc1OC
5.66 µM	c1ccc(OCCNc2nc(Nc3ccc(N4CCOCC4)cc3)nc3c2ncn3C2CCCCC2)cc1
> 20.1 µM (inactive)	CN(C)c1cccc(Nc2ccc(-n3cc(CC(=O)Nc4ccc(N5CCOCC5)cc4)c4ccccc43)nn2)c1
5.36 µM	FC(F)(F)c1ccc(Cn2cnc3c(Nc4ccc5c(c4)OCO5)nc(Nc4ccc(N5CCOCC5)cc4)nc32)cc1
> 19.2 µM (inactive)	Cc1ccccc1-c1cscc1Nc1cnn(-c2cccc(C(=O)Nc3ccc(N4CCOCC4)cc3)c2)c1
inactive	c1ccc(-n2cnc3c(NCc4cccnc4)nc(Nc4ccc(N5CCOCC5)cc4)nc32)cc1
4.33 µM	COc1cc2nc(Nc3nc4ccccc4n3C)nc(Nc3ccc(NC(C)=O)cc3)c2cc1OC

IC50	Compound
inactive	Cc1cc(Nc2ccc3c(c2)OCO3)nc(N2CCN(Cc3ccc4c(c3)OCO4)CC2)n1
inactive	COc1cc2nc(Nc3cccc(N(C)C)c3)nc(NC3CC3)c2cc1OC
> 19.2 µM (inactive)	Cc1cccc(Nc2ccc3c(cnn3-c3cccc(C(=O)NCCN4CCN(CC5CC5)CC4)c3)c2)c1Cl
> 19.2 µM (inactive)	COc1c(-c2cnn(C)c2)ccc2cnc(Nc3ccc(-n4cnc(N5CCOCC5)n4)cc3)nc12
8.82 µM	CC(C)n1cnc2c(NCc3cccc(C(F)(F)F)c3)nc(N3CCN(Cc4ccc5c(c4)OCO5)CC3)nc21
> 19.2 µM (inactive)	Nc1cc(C2=C3C=CN=C3C(=O)NCC2)c(O)[nH]1
> 19.2 µM (inactive)	Cc1cccc(Nc2ccc3c(cnn3-c3cccc(C(=O)NCCN4CCNCC4)c3)c2)c1Cl
> 19.2 µM (inactive)	Cn1cc(-c2ccc3cnc(Nc4ccc(-n5cnc(N6CCOCC6)n5)cc4)nc3c2)cn1
> 27.5 µM (inactive)	COc1cc(Nc2nc(-c3c(C)noc3C)nc3c2ncn3Cc2ccc(C(F)(F)F)cc2)cc(OC)c1OC
5.72 µM	c1cc(-n2cnc3c(Nc4ccc5c(c4)OCO5)nc(Nc4ccc(N5CCOCC5)cc4)nc32)cs1
9.41 µM	c1ccc(CN2CCC(Nc3nc(Nc4ccc(N5CCOCC5)cc4)nc4c3ncn4-c3ccsc3)CC2)cc1
inactive	Cc1cc(NC2CCN(Cc3ccccc3)CC2)nc(Nc2ccc(N3CCOCC3)cc2)n1
> 20.5 µM (inactive)	FC(F)(F)c1ccc(Cn2cnc3c(Nc4ccc5c(c4)OCO5)nc(NC4CCN(Cc5ccccc5)CC4)nc32)cc1
> 16.8 µM (inactive)	Nc1nc(Nc2ccc(N3CCOCC3)cc2)cc(Nc2ccc3c(c2)OCO3)n1
inactive	Cc1cc(Nc2ccc(N3CCOCC3)cc2)nc(N2CCc3ccccc3C2)n1
inactive	COc1cc(Nc2nc(N3CCc4ccccc4C3)nc3c2ncn3-c2ccccc2)cc(OC)c1OC
> 20.1 µM (inactive)	Cc1cc(NCc2cccc(C(F)(F)F)c2)nc(Nc2cccc(N(C)C)c2)n1
9.28 µM	COc1ccc(CCNc2nc(Nc3ccc(N4CCOCC4)cc3)nc3c2ncn3-c2ccccc2)cc1
> 16.5 µM (inactive)	CN(C)c1cccc(Nc2nccc(NCc3cccc(C(F)(F)F)c3)n2)c1
> 19.2 µM (inactive)	FC(F)(F)c1cc(-c2ccnc(Nc3ccc(N4CCOCC4)cc3)n2)cc(N2CCOCC2)c1
inactive	COc1cc2nc(Nc3nccc4ccccc34)nc(Nc3ccc(N4CCOCC4)cc3)c2cc1OC

IC50	Compound
> 20.1 µM (inactive)	COc1cc2nc(Nc3ccc(N4CCOCC4)cc3)nc(NCc3cccc(C(F)(F)F)c3)c2cc1OC
inactive	CC(C)n1cnc2c(NC3CC3)nc(N3CCN(c4ccccn4)CC3)nc21
inactive	Cc1cnc(-c2ccc(C(N)=O)cc2)nc1Nc1ccc(N2CCOCC2)cc1
inactive	c1ccc(CN2CCC(Nc3ccnc(Nc4ccc(N5CCOCC5)cc4)n3)CC2)cc1
inactive	c1cc(-n2cnc3c(NC4CC4)nc(Nc4ccc(N5CCOCC5)cc4)nc32)cs1
> 19.9 µM (inactive)	O=C1CCCN1CCCNc1nc(Nc2ccc(-n3ccnc3)cc2)nc2c1ncn2-c1ccsc1
> 19.2 µM (inactive)	Cc1ccc(-c2ncn(-c3ccc(Nc4ncc(Cl)c(-c5ccnn5C)n4)cc3)n2)cn1
inactive	FC(F)(F)c1cccc(CNc2nc(Nc3ccc(N4CCOCC4)cc3)nc3nc[nH]c23)c1
> 20 µM (inactive)	FC(F)(F)c1ccc(Cn2cnc3c(Nc4ccc(N5CCOCC5)cc4)nc(N4CCN(c5ccccn5)CC4)nc32)cc1
7.74 µM	COc1cc2nc(Nc3cccc(N(C)C)c3)nc(Nc3ccc(NC(C)=O)cc3)c2cc1OC
inactive	Oc1ccc(CCNc2nc(N3CCN(Cc4ccc5c(c4)OCO5)CC3)nc3c2ncn3-c2ccsc2)cc1
> 19.2 µM (inactive)	Cc1n[nH]c(C)c1-c1cc(F)cc(-c2ccnc(Nc3ccc(-n4cnc(N5CCOCC5)n4)cc3)n2)c1
> 19.2 µM (inactive)	CC(C)NC(=O)c1cccc(NC(=O)Nc2ccc(-c3ccnc4[nH]ccc34)cc2)c1
> 20.1 µM (inactive)	FC(F)(F)c1ccc(Cn2cnc3c(NCc4ccccc4)nc(Nc4ccccc4)nc32)cc1
> 18.8 µM (inactive)	CC(C)n1c(Nc2cccc(N(C)C)c2)nc2c(NC3CCN(Cc4ccccc4)CC3)ncnc21
> 19.2 µM (inactive)	Cc1ncn(-c2ccc(Nc3nccc(-c4cc(F)cc(-c5cn[nH]c5C)c4)n3)cc2)n1
> 22.8 µM (inactive)	c1ccc(N2CCN(c3nc(Nc4ccc(N5CCOCC5)cc4)c4ncn(C5CCCCC5)c4n3)CC2)nc1
> 19 µM (inactive)	CN(C)c1cccc(Nc2ccc(-n3cc(CC(=O)Nc4ccc5c(c4)OCO5)c4ccccc43)nn2)c1
> 19.2 µM (inactive)	c1ccc2c(c1)OCC(c1nc(N3CCOCC3)c3cc(-c4cn[nH]c4)ccc3n1)O2 (centres undefined)
> 21.6 µM (inactive)	O=C(Cc1cn(-c2ccc(Nc3nccc4ccccc34)nn2)c2ccccc12)Nc1ccc2c(c1)OCO2
> 19.2 µM (inactive)	O=C(NCCN1CCOCC1)c1cccc(-n2ncc3cc(Nc4c(F)cccc4[N+](=O)[O-])ccc32)c1

IC50	Compound
inactive	COc1cc2nc(NC3CCN(Cc4ccccc4)CC3)nc(Nc3ccc(N4CCOCC4)cc3)c2cc1OC
inactive	Cc1cc(NCCc2ccc(O)cc2)nc(Nc2cccc(N(C)C)c2)n1
> 19.9 µM (inactive)	Cc1cc(Nc2ccc(N3CCOCC3)cc2)nc(Nc2cccc(N(C)C)c2)n1
> 21.2 µM (inactive)	Cc1cc(NC2CCN(Cc3ccccc3)CC2)nc(Nc2cccc(N(C)C)c2)n1
inactive	CN(C)c1cccc(Nc2nccc(NCCOc3ccccc3)n2)c1
8.86 µM	Cc1cnc(Nc2ccc(N3CCOCC3)cc2)nc1NCc1cccc(C(F)(F)F)c1
> 19.2 µM (inactive)	c1ccc(CCn2ncc(-c3ccnc(Nc4ccc(N5CCOCC5)cc4)c3)c2Nc2ccccc2)cc1
9.06 µM	COc1ccc(-c2nc(C)cc(Nc3ccc(N4CCOCC4)cc3)n2)cc1
inactive	FC(F)(F)c1ccc(Cn2cnc3c(Nc4ccc(N5CCOCC5)cc4)nc(NC4CCN(Cc5ccccc5)CC4)nc32)cc1
> 19.9 µM (inactive)	COc1cc2nc(Nc3cccc(N(C)C)c3)nc(Nc3ccc(N4CCOCC4)cc3)c2cc1OC
> 19.9 µM (inactive)	FC(F)(F)c1ccc(Cn2cnc3c(NCc4ccccc4)nc(-c4ccc(N5CCOCC5)nc4)nc32)cc1
inactive	FC(F)(F)c1ccc(Cn2cnc3c(Nc4ccc(N5CCOCC5)cc4)nc(N4CCN(Cc5ccc6c(c5)OCO6)CC4)nc32)cc1
> 20 µM (inactive)	Cn1ccc2cc(-c3cc(Nc4ccc(N5CCOCC5)cc4)nc(N)n3)ccc21
9.53 µM	COc1ccc(CCNc2nc(Nc3ccc(N4CCOCC4)cc3)nc3c2ncn3-c2ccsc2)cc1
8.21 µM	Nc1nc(Nc2ccc(N3CCOCC3)cc2)cc(-c2ccc3[nH]ccc3c2)n1
> 18.1 µM (inactive)	COc1ccc(-c2nc3ncnc(Nc4cc(OC)c(OC)c(OC)c4)c3[nH]2)cn1
inactive	CC(C)n1cnc2c(Nc3ccccc3)nc(Nc3ccc(N4CCOCC4)cc3)nc21
8.17 µM	CCN(CC)c1nc(Nc2ccc(N3CCOCC3)cc2)nc(N2CCN(Cc3ccc4c(c3)OCO4)CC2)n1
inactive	CCN(CC)C(=O)C1CCCN(c2nc(Nc3ccc(N4CCOCC4)cc3)c3ncn(Cc4ccc(C(F)(F)F)cc4)c3n2)C1 (centres undefined)
> 20.1 µM (inactive)	FC(F)(F)c1cccc(CNc2nc(N3CCN(Cc4ccc5c(c4)OCO5)CC3)nc3c2ncn3-c2ccccc2)c1
inactive	CN(C)c1cccc(Nc2nc(Nc3ccc(N4CCOCC4)cc3)c3[nH]cnc3n2)c1
